Drawing on patent US9328075B2 (St. Jude Children's Research Hospital, priority 2011, dated 2016), this text covers IC50, CC50 and inhibition for 13 molecules.

The structures appear in SMILES notation.

For data set [1], the target named is IRdRp (PB2, PB1, PA and NP from the strain A/Vietnam/1203/04 (H1N1)) (Influenza A virus, UniProt Q5EP34). Kind of data set: cell-based. The arrangement: species or system influenza A/Vietnam/1203/04 (H1N1).
A short description of data set [2]: in vitro. The settings on record: human.
The nature of data set [3]: in vitro. The settings on record: dog.
Data set [4] concerns A/Puerto Rico/8/34 (H1N1). Kind of data set: microbe, parasite or virus in culture. The settings on record: Influenza A virus, H1N1, MDCK, 48 h, read-out: Growth Inhibition (%) 20 μM 48 h.

By IC50 is commonly meant the point on the concentration scale where inhibition reaches its midpoint. Read a low IC50 as greater potency. What is called inhibition is the change of the read-out against control, counted positive when it falls.

Turning to `CC(C)CC(C)NC(=O)c1nc(-c2ccccn2)nc(O)c1O` (stereo not shown), the IC50 in data set [1] is 12.9 µM. The CC50 at 72 h in data set [2] and in data set [3] was more than 25 µM throughout. Moreover, in data set [4], the inhibition at 20 µM is 50%.

Turning to `Cc1cccc(NC(=O)c2nc(-c3ccccn3)nc(O)c2O)c1`, in data set [1], 27.1 µM corresponded to half-maximal inhibition (IC50). For the same molecule, the CC50 at 72 h in data set [2] is less than 25 µM; in data set [3] it was more than 25 µM. Further, the inhibition at 20 µM in data set [4] was found to be 75%.

`CC(C)(C)CCNC(=O)c1nc(-c2ccccn2)nc(O)c1O` yielded an IC50 in data set [1] of 10.1 µM. The CC50 at 72 h is less than 25 µM in data set [2] and more than 25 µM in data set [3]. Moreover, the inhibition at 20 µM in data set [4] came to 88%.

`CCCCC(CC)CNC(=O)c1nc(-c2ccccn2)nc(O)c1O` (stereo not shown): in data set [1], the IC50 came out at 4.3 µM. In addition, the CC50 at 72 h was less than 25 µM in data set [2] and more than 25 µM in data set [3]. Further, the inhibition at 20 µM in data set [4] was found to be 94%.

Regarding `CC(CNC(=O)c1nc(-c2ccccn2)nc(O)c1O)c1ccccc1` (stereo not shown), the IC50 in data set [1] was 20.5 µM. For the same molecule, the values for the CC50 at 72 h in data set [2] and in data set [3] were less than 25 µM and more than 25 µM, respectively. In addition, the inhibition at 20 µM in data set [4] was determined as 50%.

Take `CC1CCC(NC(=O)c2nc(-c3ccccn3)[nH]c(=O)c2O)CC1` (stereo not shown): it took 5.6 µM to reach half-maximal inhibition in data set [1] (IC50). The CC50 at 72 h is less than 25 µM in data set [2] and more than 25 µM in data set [3]. Moreover, the inhibition at 20 µM in data set [4] turned out to be 88%.

Consider `Cc1ccccc1NC(=O)c1nc(-c2ccccn2)nc(O)c1O`, for which the IC50 in data set [1] was found to be 8.9 µM. Moreover, the CC50 at 72 h in data set [2] and in data set [3] was more than 25 µM in each case. Moreover, the inhibition at 20 µM in data set [4] is 94%.

As to `O=C(NCc1cccc2ccccc12)c1nc(-c2ccccn2)[nH]c(=O)c1O`, in data set [1], half-maximal inhibition (IC50) required 9.1 µM. The figures for the CC50 at 72 h in data set [2] and in data set [3] were less than 25 µM and more than 25 µM, respectively. For the same molecule, the inhibition at 20 µM in data set [4] came to 94%.

`O=C(NC1CCCc2ccccc21)c1nc(-c2ccccn2)[nH]c(=O)c1O` (stereo not shown): in data set [1], half-maximal inhibition (IC50) was put at 3.6 µM. In addition, the CC50 at 72 h in data set [2] was found to be 2.6 µM; in data set [3] it was 7 µM. Moreover, in data set [4], the inhibition at 20 µM was found to be 97%.

In turn, `CC1CCCCC1NC(=O)c1nc(-c2ccccn2)nc(O)c1O` (stereo not shown) returned an IC50 in data set [1] of 5.5 µM. Moreover, the CC50 at 72 h is less than 25 µM in data set [2] and 5.5 µM in data set [3]. For the same molecule, in data set [4], the inhibition at 20 µM turned out to be 97%.

`CCCCCC(C)NC(=O)c1nc(-c2ccccn2)nc(O)c1O` (stereo not shown) displayed an IC50 in data set [1] of 14.1 µM. Besides, the CC50 at 72 h in data set [2] was less than 25 µM; in data set [3], more than 25 µM. In addition, the inhibition at 20 µM in data set [4] worked out at 88%.

`CC(C)(C)c1cccc(NC(=O)c2nc(-c3ccccn3)nc(O)c2O)c1` came in with an IC50 in data set [1] of 5.9 µM. The CC50 at 72 h in data set [2] was less than 25 µM; in data set [3], more than 25 µM. For the same molecule, the inhibition at 20 µM in data set [4] was 94%.

In the case of `COc1ccc(NC(=O)c2nc(-c3ccccn3)nc(O)c2O)c(C)c1`, the IC50 in data set [1] stood at 10 µM. Moreover, the figures for the CC50 at 72 h in data set [2] and in data set [3] were less than 25 µM and more than 25 µM, respectively. Besides, the inhibition at 20 µM in data set [4] was determined as 0%.
